Source: the supplement of paper PMC10307832

Assays:
Assay in all cases: relative viability (nuclei count vs DMSO), 5 days (fraction); higher = more cells survive
[1] = compound: C/C(=N\NC(=S)N1CCC1)/C2=CC=CC=N2 + CC(=O)Nc1cccc(-n2c(=O)n(C3CC3)c(=O)c3c(Nc4ccc(I)cc4F)n(C)c(=O)c(C)c32)c1 [Trametinib] (partner 0.02 µM)
Outline: (§1)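 Each reported value is a median over duplicate plates. It expresses relative viability: treated-well nuclei count divided by vehicle-well nuclei count. Lung cancer cell lines in 1536-well plates were dosed by pin tool a day after seeding, alone with one drug or with a fixed anchor-drug dose plus five library-drug doses (not always all listed) in √10 steps, and nuclei were counted after 5 days.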

[2] = compound: C/C(=N\NC(=S)N1CCC1)/C2=CC=CC=N2 + CS(=O)(=O)CCNCc1ccc(-c2ccc3ncnc(Nc4ccc(OCc5cccc(F)c5)c(Cl)c4)c3c2)o1 [Lapatinib] (partner 2 µM)
Outline: as §1

[3] = compound: C/C(=N\NC(=S)N1CCC1)/C2=CC=CC=N2 + N=C(N)NC(=N)NCCc1ccccc1 [Phenformin] (partner 250 µM)
Outline: as §1

[4] = compound: C/C(=N\NC(=S)N1CCC1)/C2=CC=CC=N2 + O=C(c1cc(Cc2n[nH]c(=O)c3ccccc23)ccc1F)N1CCN(C(=O)C2CC2)CC1 [Olaparib] (partner 8 µM)
Outline: as §1

| Cell Line | relative viability ([1]; first compound 0.05 µM) | relative viability ([1]; first compound 0.1581 µM) | relative viability ([1]; first compound 0.5 µM) | relative viability ([1]; first compound 1.581 µM) | relative viability ([1]; first compound 5 µM) | relative viability ([2]; first compound 0.05 µM) | relative viability ([2]; first compound 0.1581 µM) | relative viability ([2]; first compound 0.5 µM) | relative viability ([2]; first compound 1.581 µM) | relative viability ([2]; first compound 5 µM) | relative viability ([3]; first compound 0.05 µM) | relative viability ([3]; first compound 0.1581 µM) | relative viability ([3]; first compound 0.5 µM) | relative viability ([3]; first compound 1.581 µM) | relative viability ([3]; first compound 5 µM) | relative viability ([4]; first compound 0.05 µM) | relative viability ([4]; first compound 0.1581 µM) | relative viability ([4]; first compound 0.5 µM) | relative viability ([4]; first compound 1.581 µM) | relative viability ([4]; first compound 5 µM) |
| --- | --- | --- | --- | --- | --- | --- | --- | --- | --- | --- | --- | --- | --- | --- | --- | --- | --- | --- | --- | --- |
| HCC-827 | 0.377 | 0.269 | 0.211 | 0.214 | 0.176 | 0.161 | 0.168 | 0.201 | 0.211 | 0.19 | 0.222 | 0.239 | 0.201 | 0.173 | 0.175 | 0.333 | 0.227 | 0.203 | 0.145 | 0.175 |
| HCC-78 | 0.5 | 0.377 | 0.359 | 0.275 | 0.23 | 0.0064 | 0.211 | 0.226 | 0.158 | 0.178 | 0.279 | 0.367 | 0.314 | 0.247 | 0.213 | 0.523 | 0.379 | 0.32 | 0.249 | 0.211 |
| NCI-H2085 | 0.183 | 0.19 | 0.216 | 0.153 | 0.224 | 0.341 | 0.365 | 0.335 | 0.271 | 0.325 | 0.198 | 0.297 | 0.243 | 0.178 | 0.239 | 0.307 | 0.25 | 0.293 | 0.281 | 0.278 |
| PC-14 | 0.0651 | 0.0788 | 0.0488 | 0.039 | 0.0546 | 0.11 | 0.112 | 0.124 | 0.0912 | 0.0865 | 0.0972 | 0.134 | 0.095 | 0.0228 | 0.0472 | 0.0569 | 0.064 | 0.0532 | 0.0383 | 0.0401 |
| NCI-H2342 | 0.249 | 0.303 | 0.227 | 0.253 | 0.272 | – | – | – | – | – | 0.25 | 0.232 | 0.266 | 0.231 | 0.25 | 0.276 | 0.281 | 0.192 | 0.206 | 0.259 |
| A-427 | 0.226 | 0.215 | 0.189 | 0.185 | 0.178 | 0.138 | 0.149 | 0.138 | 0.115 | 0.139 | 0.13 | 0.142 | 0.134 | 0.121 | 0.138 | 0.2 | 0.191 | 0.151 | 0.154 | 0.167 |
| H3255 | 0.29 | 0.304 | 0.258 | 0.295 | 0.325 | 0.255 | 0.218 | 0.14 | 0.157 | 0.184 | 0.318 | 0.333 | 0.317 | 0.301 | 0.346 | 0.353 | 0.321 | 0.292 | 0.235 | 0.254 |
| HCC-44 | 0.869 | 0.987 | 0.409 | 0.491 | 0.397 | 0.292 | 0.184 | 0.177 | 0.156 | 0.232 | 0.0955 | 0.14 | 0.0915 | 0.153 | 0.188 | 0.863 | 0.918 | 0.541 | 0.517 | 0.446 |
| NCI-H1734 | 0.153 | 0.154 | 0.122 | 0.137 | 0.116 | 0.162 | 0.141 | 0.15 | 0.115 | 0.12 | 0.147 | 0.206 | 0.194 | 0.12 | 0.132 | 0.148 | 0.13 | 0.15 | 0.114 | 0.1 |
| NCI-H2228 | 0.124 | 0.151 | 0.137 | 0.0911 | 0.135 | 0.144 | 0.162 | 0.136 | 0.0958 | 0.139 | 0.127 | 0.158 | 0.172 | – | 0.111 | 0.125 | 0.142 | 0.138 | 0.115 | 0.107 |
| ABC-1 | – | – | – | – | – | 0.475 | 0.513 | 0.495 | 0.459 | 0.456 | 0.196 | 0.203 | 0.222 | 0.202 | 0.14 | 0.349 | 0.338 | 0.301 | 0.345 | 0.438 |
| COR-L23 | 0.111 | 0.133 | 0.124 | 0.107 | 0.114 | 0.144 | 0.156 | 0.119 | 0.0787 | 0.101 | 0.104 | 0.102 | 0.104 | 0.0877 | 0.0862 | 0.107 | 0.0921 | 0.0895 | 0.0916 | 0.105 |
| ChaGo-K-1 | 0.147 | 0.391 | 0.15 | 0.133 | 0.152 | – | – | – | – | – | 0.176 | 0.194 | 0.188 | 0.152 | 0.174 | 0.137 | 0.247 | 0.126 | 0.138 | 0.135 |
| EBC-1 | – | – | – | – | – | 0.225 | 0.195 | 0.226 | 0.191 | 0.161 | – | – | – | – | – | 0.163 | 0.164 | 0.152 | 0.131 | 0.13 |
| NCI-H441 | 0.143 | 0.173 | 0.154 | 0.11 | 0.131 | – | – | – | – | – | 0.204 | 0.16 | 0.197 | 0.156 | 0.187 | 0.167 | 0.136 | 0.125 | 0.113 | 0.138 |
| A549 | – | – | – | – | – | 0.065 | 0.0607 | 0.0715 | 0.0714 | 0.0609 | 0.0324 | 0.034 | 0.0226 | 0.0286 | 0.0232 | 0.0312 | 0.0426 | 0.0325 | 0.0517 | 0.0367 |
| NCI-H1703 | – | – | – | – | – | 0.185 | 0.153 | 0.17 | 0.168 | 0.178 | – | – | – | – | – | 0.0864 | 0.132 | 0.103 | 0.0868 | 0.158 |
| LCLC-103H | 0.303 | 0.622 | 0.324 | 0.357 | 0.256 | – | – | – | – | – | 0.17 | 0.172 | 0.21 | 0.129 | 0.187 | 0.3 | 0.613 | 0.222 | 0.236 | 0.256 |
| NCI-H1563 | – | – | – | – | – | 0.626 | 0.61 | 0.573 | 0.598 | 0.623 | 0.374 | 0.472 | 0.491 | 0.506 | 0.611 | – | – | – | – | – |
